Measurements: the supplement of paper PMC4862054

Experiments:
Conditions in all cases: incubation time: 72 h
BT-474 [1] = assay: normalised response (% of control), CellTox Green; higher = less cell death (100 = DMSO, 0 = benzethonium chloride kill control)
Summary of the method: (§1)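 For each plate, 0.1 % DMSO was set to 100 and a positive kill control to 0. Breast cancer cell lines (20 µl suspension) were seeded into 384-well plates already holding compound at 5 concentrations in 10-fold steps over a 10,000-fold range chosen per compound, and incubated for 72 h. CellTox Green fluorescence at 485/520 nm was read before CellTiter-Glo luminescence, which followed 10 min at room temperature. Each value is the normalised signal at one concentration.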

BT-549 [2] = assay: as above
Summary of the method: as §1

CAL-120 [3] = assay: as above
Summary of the method: as §1

CAL-148 [4] = assay: as above
Summary of the method: as §1

CAL-51 [5] = assay: as above
Summary of the method: as §1

CAL-85-1 [6] = assay: as above
Summary of the method: as §1

DU-4475 [7] = assay: as above
Summary of the method: as §1

HCC1143 [8] = assay: as above
Summary of the method: as §1

HCC1599 [9] = assay: as above
Summary of the method: as §1

HCC1937 [10] = assay: as above
Summary of the method: as §1

Hs578T [11] = assay: as above
Summary of the method: as §1

MCF-10A [12] = assay: as above
Summary of the method: as §1

MDA-MB-231 [13] = assay: as above
Summary of the method: as §1

MDA-MB-436 [14] = assay: as above
Summary of the method: as §1

MDA-MB-453 [15] = assay: as above
Summary of the method: as §1

MDA-MB-468 [16] = assay: as above
Summary of the method: as §1

MFM-223 [17] = assay: as above
Summary of the method: as §1

BT-474 [18] = assay: normalised response (% of control), CellTiter-Glo; higher = more viable cells (100 = DMSO, 0 = benzethonium chloride kill control)
Procedure: (§2)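 DSRT, 72 h incubation, CellTox Green / CellTiter-Glo readout. Signal is normalised to DMSO and benzethonium chloride controls. Value is the normalised response at dose 3.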

BT-549 [19] = assay: as above
Procedure: as §2

CAL-120 [20] = assay: as above
Procedure: as §2

CAL-148 [21] = assay: as above
Procedure: as §2

CAL-51 [22] = assay: as above
Procedure: as §2

CAL-85-1 [23] = assay: as above
Procedure: as §2

DU-4475 [24] = assay: as above
Procedure: as §2

HCC1143 [25] = assay: as above
Procedure: as §2

HCC1599 [26] = assay: as above
Procedure: as §2

HCC1937 [27] = assay: as above
Procedure: as §2

HDQ-P1 [28] = assay: as above
Procedure: as §2

Hs578T [29] = assay: as above
Procedure: as §2

MCF-10A [30] = assay: as above
Procedure: as §2

MDA-MB-231 [31] = assay: as above
Procedure: as §2

MDA-MB-436 [32] = assay: as above
Procedure: as §2

MDA-MB-453 [33] = assay: as above
Procedure: as §2

MDA-MB-468 [34] = assay: as above
Procedure: as §2

MFM-223 [35] = assay: as above
Procedure: as §2

SK-BR-3 = assay: as above
Procedure: as §2

HDQ-P1 [36] = assay: normalised response (% of control), CellTox Green; higher = less cell death (100 = DMSO, 0 = benzethonium chloride kill control)
Summary of the method: as §1

Cc1cccc(-c2nn3c(c2-c2ccnc4ccc(C(N)=O)cc24)CCC3)n1 [Galunisertib] (10 nM)
normalised response (BT-474 [1]): 103%
normalised response (BT-549 [2]): 114%
normalised response (CAL-120 [3]): 105%
normalised response (CAL-148 [4]): 106%
normalised response (CAL-51 [5]): 114%
normalised response (CAL-85-1 [6]): 107%
normalised response (DU-4475 [7]): 109%
normalised response (HCC1143 [8]): 70.5%
normalised response (HCC1599 [9]): 116%
normalised response (HCC1937 [10]): 123%
normalised response (Hs578T [11]): 100%
normalised response (MCF-10A [12]): 82.4%
normalised response (MDA-MB-231 [13]): 116%
normalised response (MDA-MB-436 [14]): 104%
normalised response (MDA-MB-453 [15]): 103%
normalised response (MDA-MB-468 [16]): 101%
normalised response (MFM-223 [17]): 107%
normalised response (BT-474 [18]): 108%
normalised response (BT-549 [19]): 104%
normalised response (CAL-120 [20]): 109%
normalised response (CAL-148 [21]): 112%
normalised response (CAL-51 [22]): 120%
normalised response (CAL-85-1 [23]): 96.8%
normalised response (DU-4475 [24]): 108%
normalised response (HCC1143 [25]): 103%
normalised response (HCC1599 [26]): 102%
normalised response (HCC1937 [27]): 101%
normalised response (HDQ-P1 [28]): 104%
normalised response (Hs578T [29]): 103%
normalised response (MCF-10A [30]): 111%
normalised response (MDA-MB-231 [31]): 113%
normalised response (MDA-MB-436 [32]): 106%
normalised response (MDA-MB-453 [33]): 110%
normalised response (MDA-MB-468 [34]): 107%
normalised response (MFM-223 [35]): 106%
normalised response (SK-BR-3): 110%

O=C1c2c(O)ccc(O)c2C(=O)c2c(NCCNCCO)ccc(NCCNCCO)c21 [Mitoxantrone] (10 nM)
normalised response (BT-474 [1]): 101%
normalised response (BT-549 [2]): 94.3%
normalised response (CAL-120 [3]): 101%
normalised response (CAL-51 [5]): 104%
normalised response (CAL-85-1 [6]): 96.2%
normalised response (DU-4475 [7]): 99.9%
normalised response (HCC1143 [8]): 111%
normalised response (HCC1599 [9]): 96.5%
normalised response (HCC1937 [10]): 91.8%
normalised response (MCF-10A [12]): 107%
normalised response (MDA-MB-231 [13]): 104%
normalised response (MDA-MB-436 [14]): 93.1%
normalised response (MDA-MB-453 [15]): 107%
normalised response (MDA-MB-468 [16]): 129%
normalised response (MFM-223 [17]): 97.3%
normalised response (BT-474 [18]): 96.1%
normalised response (BT-549 [19]): 96.7%
normalised response (CAL-120 [20]): 104%
normalised response (CAL-148 [21]): 98.6%
normalised response (CAL-51 [22]): 93.5%
normalised response (CAL-85-1 [23]): 97.8%
normalised response (DU-4475 [24]): 95.8%
normalised response (HCC1143 [25]): 104%
normalised response (HCC1599 [26]): 97.2%
normalised response (HCC1937 [27]): 101%
normalised response (HDQ-P1 [28]): 106%
normalised response (Hs578T [29]): 102%
normalised response (MCF-10A [30]): 96.2%
normalised response (MDA-MB-231 [31]): 99.8%
normalised response (MDA-MB-436 [32]): 92.7%
normalised response (MDA-MB-453 [33]): 99.3%
normalised response (MDA-MB-468 [34]): 95.6%
normalised response (MFM-223 [35]): 94%
normalised response (SK-BR-3): 89.1%

COc1nc(N)nc2c1ncn2[C@@H]1O[C@H](CO)[C@@H](O)[C@@H]1O [Nelarabine] (100 nM)
normalised response (BT-474 [1]): 75.7%
normalised response (BT-549 [2]): 98.7%
normalised response (CAL-120 [3]): 98.4%
normalised response (CAL-148 [4]): 104%
normalised response (CAL-51 [5]): 93.8%
normalised response (CAL-85-1 [6]): 90.6%
normalised response (DU-4475 [7]): 95.2%
normalised response (HCC1599 [9]): 87%
normalised response (HCC1937 [10]): 88.7%
normalised response (Hs578T [11]): 107%
normalised response (MDA-MB-231 [13]): 92.1%
normalised response (MDA-MB-436 [14]): 90.5%
normalised response (MDA-MB-453 [15]): 97.5%
normalised response (MDA-MB-468 [16]): 135%
normalised response (MFM-223 [17]): 100%
normalised response (BT-474 [18]): 89.2%
normalised response (BT-549 [19]): 98.1%
normalised response (CAL-120 [20]): 94.2%
normalised response (CAL-148 [21]): 83.2%
normalised response (CAL-51 [22]): 90.7%
normalised response (CAL-85-1 [23]): 94.7%
normalised response (DU-4475 [24]): 93.6%
normalised response (HCC1143 [25]): 103%
normalised response (HCC1599 [26]): 103%
normalised response (HCC1937 [27]): 95.5%
normalised response (HDQ-P1 [28]): 95.9%
normalised response (Hs578T [29]): 87.1%
normalised response (MCF-10A [30]): 84.9%
normalised response (MDA-MB-231 [31]): 94.2%
normalised response (MDA-MB-436 [32]): 94%
normalised response (MDA-MB-453 [33]): 87.2%
normalised response (MDA-MB-468 [34]): 95.6%
normalised response (MFM-223 [35]): 89%
normalised response (SK-BR-3): 77.8%

O=C(CCBr)N1CCN(C(=O)CCBr)CC1 [Pipobroman] (100 nM)
normalised response (BT-474 [1]): 87.5%
normalised response (BT-549 [2]): 70.2%
normalised response (CAL-120 [3]): 101%
normalised response (CAL-148 [4]): 105%
normalised response (CAL-51 [5]): 101%
normalised response (CAL-85-1 [6]): 109%
normalised response (DU-4475 [7]): 101%
normalised response (HCC1143 [8]): 108%
normalised response (HCC1599 [9]): 96.6%
normalised response (HDQ-P1 [36]): 107%
normalised response (MCF-10A [12]): 84.8%
normalised response (MDA-MB-231 [13]): 94.4%
normalised response (MDA-MB-436 [14]): 101%
normalised response (MFM-223 [17]): 103%
normalised response (BT-474 [18]): 102%
normalised response (BT-549 [19]): 97.6%
normalised response (CAL-120 [20]): 102%
normalised response (CAL-148 [21]): 105%
normalised response (CAL-51 [22]): 88%
normalised response (CAL-85-1 [23]): 101%
normalised response (DU-4475 [24]): 106%
normalised response (HCC1143 [25]): 105%
normalised response (HCC1599 [26]): 115%
normalised response (HCC1937 [27]): 106%
normalised response (HDQ-P1 [28]): 102%
normalised response (Hs578T [29]): 105%
normalised response (MCF-10A [30]): 106%
normalised response (MDA-MB-231 [31]): 105%
normalised response (MDA-MB-436 [32]): 91.5%
normalised response (MDA-MB-453 [33]): 93.2%
normalised response (MDA-MB-468 [34]): 102%
normalised response (MFM-223 [35]): 103%
normalised response (SK-BR-3): 107%

CC(C)N(CCCNC(=O)Nc1ccc(C(C)(C)C)cc1)C[C@H]1O[C@@H](n2cc(Br)c3c(N)ncnc32)[C@H](O)[C@@H]1O [SGC0946] (100 nM)
normalised response (BT-474 [1]): 98.2%
normalised response (BT-549 [2]): 101%
normalised response (CAL-120 [3]): 95.6%
normalised response (CAL-148 [4]): 100%
normalised response (CAL-51 [5]): 95.6%
normalised response (CAL-85-1 [6]): 103%
normalised response (DU-4475 [7]): 98.8%
normalised response (HCC1143 [8]): 88.1%
normalised response (HCC1599 [9]): 96.4%
normalised response (MCF-10A [12]): 99%
normalised response (MDA-MB-231 [13]): 73.8%
normalised response (MDA-MB-436 [14]): 95.2%
normalised response (MDA-MB-453 [15]): 99.1%
normalised response (MDA-MB-468 [16]): 108%
normalised response (MFM-223 [17]): 97.4%
normalised response (BT-474 [18]): 96%
normalised response (BT-549 [19]): 91.3%
normalised response (CAL-120 [20]): 101%
normalised response (CAL-148 [21]): 86.6%
normalised response (CAL-51 [22]): 91.1%
normalised response (CAL-85-1 [23]): 102%
normalised response (DU-4475 [24]): 98%
normalised response (HCC1143 [25]): 101%
normalised response (HCC1599 [26]): 93.7%
normalised response (HCC1937 [27]): 94.4%
normalised response (HDQ-P1 [28]): 93%
normalised response (Hs578T [29]): 88.5%
normalised response (MCF-10A [30]): 96%
normalised response (MDA-MB-231 [31]): 96%
normalised response (MDA-MB-436 [32]): 99.4%
normalised response (MDA-MB-453 [33]): 91%
normalised response (MDA-MB-468 [34]): 93.8%
normalised response (MFM-223 [35]): 95.2%
normalised response (SK-BR-3): 90%
